{"source": "PubChem BioAssay (NCI)", "note": "Where “and” joins values, the source holds several entries; their conditions need not be identical. Identical values can stand only once.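 1) Cells in 96-well plates. 2) Compound, 48 h, 5 concentrations. 3) Linear interpolation between surrounding doses. 4) Unreached endpoint = highest concentration. GI50 is the concentration that inhibits growth by half. The concentration for full growth arrest is given as TGI.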", "data": [{"tested_on": "SN12C renal", "assay": "NCI-60 cell line screen, 48 h", "units": {"TGI": "µM"}, "values": [{"smiles": "C[C@]12CC[C@H](O)CC1=CC[C@@H]1[C@@H]2CC[C@]2(C)C(=N/N)/C(=N\\O)C[C@@H]12", "TGI": "> 100"}, {"smiles": "Cc1ccc(NC(=O)c2ccc(OP(=O)(O)Nc3ccc(C)cc3)cc2)cc1", "TGI": "> 100"}, {"smiles": "COc1ccc(CN2C(=O)/C(=C\\c3cc(OC)c(OC)c(OC)c3)c3ccccc32)cc1", "GI50": "3.04 µM", "TGI": "> 100"}, {"smiles": "Cc1ccnc(NS(=O)(=O)c2ccc(N=[N+]=[N-])cc2)n1", "TGI": "> 100"}, {"smiles": "Cc1ccccc1C(=N)c1ccccc1Cc1cccc2ccccc12", "TGI": 39.5}, {"smiles": "CCC(=O)NCC1CCCN2CCCCC12", "note": "(stereo not given)", "TGI": "> 100"}, {"smiles": "O=C(C1OC1c1ccc(Br)cc1O)C12CC3CC(CC(C3)C1)C2", "note": "(stereo not given)", "TGI": 30.1}, {"smiles": "Cc1ccc(N(Cc2ccccc2)Cc2ccccc2)cc1", "TGI": "> 100"}, {"smiles": "CC(C)=CCC[C@@H](C)c1c(O)c(O)c(C)c2nccnc12", "TGI": "> 100"}, {"smiles": "S=C(N/N=C(/c1ccccc1)c1ccccn1)N(Cc1ccccn1)Cc1ccccn1", "TGI": 3.47}, {"smiles": "Cc1ccc(-c2cc(-c3ccco3)c(C#N)c(=S)n2C2OC(CO)C(O)C(O)C2O)cc1", "note": "(stereo not given)", "GI50": "20.6 µM and > 100 µM", "TGI": "> 100"}, {"smiles": "Cc1oc2c(cc(O)c3cc(O)ccc32)c2cccc1-2", "TGI": "> 100"}, {"smiles": "NC(N)=Nc1ccc(CC(N)NCC(=O)O)cc1", "note": "(stereo not given)", "TGI": "> 25"}, {"smiles": "COc1nncc2[nH]c(-c3ccccc3)cc12", "TGI": "> 100"}, {"smiles": "O=C(NCc1ccccc1)c1n[nH][nH]c1=O", "TGI": "> 100"}, {"smiles": "O=S(=O)(c1ccccc1)c1cccc2c1NCCC2", "TGI": "> 100"}, {"smiles": "COP(=O)(OC)C1=c2c(C)noc2=C2C=COC2C1=O", "note": "(stereo not given)", "TGI": "> 100"}, {"smiles": "CCOC(=O)N1CCN(Cc2cc(=O)n3ccc(C)cc3n2)CC1", "TGI": "> 100"}, {"smiles": "COc1cccc(C2SC(N)=Nc3c2c(C)nn3C(=O)c2ccccc2O)c1", "note": "(stereo not given)", "TGI": "> 10"}]}, {"tested_on": "EKVX NSCLC", "assay": "NCI-60 cell line screen, 48 h", "units": {"TGI": "µM", "GI50": "µM"}, "values": [{"smiles": "CCOC(=O)c1c(CN2CCCC2)n(-c2ccccc2)c2cc(Br)c(O)cc12", "TGI": 39.7}, {"smiles": "Nn1c(-c2ccccc2)n[nH]c1=O", "TGI": "> 100"}, {"smiles": "Cc1cc(-c2nc3ccc(F)cc3s2)ccc1NC(=O)[C@H](C)N", "TGI": 23}, {"smiles": "Cc1cc(C)nc(NS(=O)(=O)c2ccc(NC(=O)c3ccc4nc5ccccc5c(Nc5ccc(S(N)(=O)=O)cc5)c4c3)cc2)n1", "TGI": "> 100"}, {"smiles": "Nc1c(-c2ccc(Cl)c(Cl)c2)c2ccc([N+](=O)[O-])cc2c(=O)n1-c1nc2ccccc2s1", "TGI": 46.8}, {"smiles": "NS(=O)(=O)c1nnc(NC(=O)Nc2ccc(Cl)c(Cl)c2)s1", "TGI": 94.6}, {"smiles": "COC(=O)c1c(C)nc2c1cc(O)c1[nH]c(C)c(C)nc12", "TGI": "> 100"}, {"smiles": "Cn1c2ccc3cc2c(=S)c2cc(ccc21)OCCOCCOCCOCCOCCOCCO3", "TGI": "> 10"}, {"smiles": "O=[N+]([O-])c1cc(C=NC23CC4CC(CC(C4)C2)C3)ccc1Cl", "TGI": "> 61.8"}, {"smiles": "CCCCCC1=CC(=O)C1(Cl)Cl", "TGI": 49.6}, {"smiles": "CC(=O)N(C(=O)CC(=O)N1N=C(c2ccccc2)C(N=Nc2ccccc2[N+](=O)[O-])C1=O)c1ccc(Cl)cc1", "note": "(stereo not given)", "TGI": "> 10"}, {"smiles": "CC(=O)N1C(C(=O)NC2CCCCC2)CSC1c1ccccc1", "note": "(stereo not given)", "TGI": "> 100"}, {"smiles": "COc1ncc(/C=C2\\OC(=O)c3ccccc32)c(OC)n1", "TGI": "> 100"}, {"smiles": "CC(=O)Nn1c(=S)[nH]c2ccccc21", "TGI": "> 100"}, {"smiles": "C[C@]12CCC3C4=C(CCC3C1CCC2=O)C(=O)[C@H]1O[C@H]1C4=O", "note": "(stereo not given in full)", "TGI": 27.7}, {"smiles": "CCCCOC(=O)Nc1ccc(S(=O)(=O)Nc2ccccc2Cl)cc1", "TGI": 57}, {"smiles": "CC(C)c1cc2c(cc1S(=O)(=O)O)[C@@]1(C)CCC[C@@](C)(C(=O)O)C1CC2", "note": "(stereo not given in full)", "TGI": "> 100"}, {"smiles": "N#CC(Cc1ccccc1)N(CCC1=CCCCC1)C(c1ccccc1)c1ccccc1", "note": "(stereo not given)", "TGI": "> 100"}, {"smiles": "C/C(=C\\CBr)CCC(Br)C(C)(C)Br", "note": "(stereo not given)", "TGI": "> 100"}, {"smiles": "C#CCn1c(=O)c2ccccc2n(CC#C)c1=O", "TGI": "> 10"}, {"smiles": "[N-]=[N+]=NC(c1ccccc1)(c1ccccc1)c1ccccc1", "TGI": 27.8}, {"smiles": "CC1CN(C)c2ccccc2N=C1NN", "note": "(stereo not given)", "TGI": "> 100"}, {"smiles": "CC(=O)c1c2c(c3ccccc3c1O)O[C@@H]1OCC[C@H]21", "TGI": "> 100"}, {"smiles": "C[C@]12CC[C@H](O)CC1=CC[C@@H]1[C@@H]2CC[C@]2(C)C(=N/N)/C(=N\\O)C[C@@H]12", "TGI": "> 100"}, {"smiles": "Cc1ccc(NC(=O)c2ccc(OP(=O)(O)Nc3ccc(C)cc3)cc2)cc1", "TGI": "> 100"}, {"smiles": "COc1ccc(CN2C(=O)/C(=C\\c3cc(OC)c(OC)c(OC)c3)c3ccccc32)cc1", "GI50": 2.99, "TGI": 55.1}, {"smiles": "Cc1ccnc(NS(=O)(=O)c2ccc(N=[N+]=[N-])cc2)n1", "TGI": "> 100"}, {"smiles": "Cc1ccccc1C(=N)c1ccccc1Cc1cccc2ccccc12", "TGI": "> 100"}, {"smiles": "CCC(=O)NCC1CCCN2CCCCC12", "note": "(stereo not given)", "TGI": "> 100"}, {"smiles": "O=C(C1OC1c1ccc(Br)cc1O)C12CC3CC(CC(C3)C1)C2", "note": "(stereo not given)", "TGI": "> 100"}, {"smiles": "Cc1ccc(N(Cc2ccccc2)Cc2ccccc2)cc1", "TGI": "> 100"}, {"smiles": "CC(C)=CCC[C@@H](C)c1c(O)c(O)c(C)c2nccnc12", "TGI": "> 100"}, {"smiles": "S=C(N/N=C(/c1ccccc1)c1ccccn1)N(Cc1ccccn1)Cc1ccccn1", "TGI": 1.7}]}]}
